The text below walks through data of US20230341404A1, “TARGETING STROMA-CANCER INTERACTIONS IN CANCER” (The Regents of the University of California, priority 2022, published 2023).

Assay [1] deals with KPC cells. In words: cell viability with tigecycline. It counts as cell-based, mouse. The note with it: parental cells on wild-type ECM versus R/R ECM or DDR1^KD cells on wild-type ECM, LG medium. How it is done: (§1) FIGS. 14A-14J: Effect of macropinocytosis and mitochondria on Col I-controlled PDAC cell growth. FIG. 14A, Bromodeoxyuridine (BrdU) incorporation into KPC cells plated on ECM mixtures produced by R/R and WT fibroblasts (R:W). Scale bars, 10 μm. FIG. 14B, FIG. 14C, Paren. and IKKα^KD KPC (FIG. 14B) or KC (FIG. 14C) cells were plated −/+ WT or R/R ECM and incubated in LG −/+ indicated reagents. Viable cells were measured after 3 days and depicted relative to untreated plastic-plated Paren. cells. (FIG. 14C). IKKα KD efficiency is shown on the right (FIG. 14B). […] Total viable cells were measured as above and are presented relative to the untreated cells. FIG. 14H, Mitochondrial ATP production calculated from FIG. 6B. […] Quantification of the SR positive area is shown on the left. […] Statistical significance determined by two-tailed t-test. […]
(§2) Cells were plated in 96-well plates coated with or without ECM at a density of 3,000 cells (MIA, 1305) or 1,500 cells (KPC or KC) per well and incubated overnight before treatment. […] Cell viability was determined with a Cell Counting Kit-8 assay (Glpbio). Optical density was read at 450 nm and analysed using a microplate reader with SoftMax 6.5 software (FilterMax F5, Molecular Devices). […]

Assay [2] concerns 1305 cells. In words: cell viability with tigecycline. It counts as cell-based, human. The note with it: parental cells on wild-type ECM versus R/R ECM or DDR1^KD cells on wild-type ECM, LG medium, 24 h. On the procedure:
as §1, §2

Assay [3] deals with KPC cells. In words: macropinocytosis and mitochondria in KPC cells on ECM from Ilomastat-treated fibroblasts. It counts as cell-based, mouse. The note with it: ECM from Ilomastat-treated wild-type fibroblasts, LG medium, 24 h. How it is done: FIGS. 12A-12M: Inhibition of Col I cleavage shuts down NRF2-driven macropinocytosis and mitochondrial biogenesis. FIG. 12A, MP and mitochondria in KPC cells plated on indicated ECM and incubated in LG for 24 h. Col IIB in indicated ECM preparations is shown on the right. FIG. 12B, IB of indicated proteins in above cells. FIG. 12C, MP and mitochondria in indicated KPC cells plated on R/R Col I^Δ ECM and incubated in LG for 24 h. FIG. 12D, LB of indicated proteins in 1305 cells plated on ECM produced by bacterial collagenase (CLG, 50 μg/ml) treated or untreated fibroblasts and incubated in LG medium −/+CLG for 24 h. FIG. 12E, Genes differentially expressed between KPC cells plated on indicated ECM. Light gray: replicates with low expression (z-score=−2); dark gray: replicates with high expression (z-score=+2). […] Quantitation on the right. […] Statistical significance determined by two-tailed t-test. ***P<0.001, ****P<0.0001. […]
Cells were cultured on coverslips coated with or without ECM and fixed in 4% paraformaldehyde for 10 min at room temperature or methanol for 10 min at —20° C. […] Images were captured and analysed using a TCS SPE Leica confocal microscope with Leica Application Suite AF 2.6.0.7266 software (Leica).
Macropinosomes or mitochondria were quantified by using the ‘Analyze Particles’ feature in Image J (NIH). […] Kaplan—Meier survival curves were analysed by log-rank test. […]

For `CN(C)c1cc(NC(=O)CNC(C)(C)C)c(O)c2c1C[C@H]1C[C@H]3[C@H](N(C)C)C(O)=C(C(N)=O)C(=O)[C@@]3(O)C(O)=C1C2=O` [tigecycline], the “sensitivity to tigecycline (viable cells)” value in assay [1] and in assay [2] was “more sensitive” throughout. `CNC(=O)[C@H](Cc1c[nH]c2ccccc12)NC(=O)[C@@H](CC(=O)NO)CC(C)C` [Ilomastat]: in assay [3], the “behaviour of ECM from treated fibroblasts (macropinocytosis, mitochondria)” value is recorded as “behaved like R/R ECM”.
